Reference: patent US8461139B2 (Taro Pharmaceuticals North America, Inc., priority 2005, dated 2013)

Experiment: pH screen stability of prednisolone acetate oral suspension (HPLC)
Assay type: physicochemical
Conditions: pH range of 5.0 to 6.2
Experimental: NaOH was added to the portions to give various pH values (Batch A-E) and packaged in 4 ounce amber PETG bottles. The samples were left at the environmentally stressed conditions of 40° centigrade or 50° centigrade for one month. HPLC methods were used to measure the percent of prednisolone acetate retained in the bottle.

## CC(=O)OCC(=O)[C@@]1(O)CC[C@H]2[C@@H]3CCC4=CC(=O)C=C[C@]4(C)[C@H]3[C@@H](O)C[C@@]21C [Prednisolone acetate, prednisolone acetate]
  Stability as a function of pH: more stable at the lower pH values
